Key:
[1] = target: GDP-bound HRAS wild-type protein (Homo sapiens, UniProt P01112); experiment: Binding to HRAS by surface plasmon resonance (SPR), Single Cycle Kinetics; details: for HRAS/KRAS (ratio of KD value with respect to GDP-bound HRAS wild-type protein to KD value with respect to KRAS): SPR KD ratio HRAS/KRAS, class symbols
[2] = target: GDP-bound NRAS wild-type protein (Homo sapiens, UniProt P01111); experiment: Binding to NRAS by surface plasmon resonance (SPR), Single Cycle Kinetics; details: for NRAS/KRAS (ratio of KD value with respect to GDP-bound NRAS wild-type protein to KD value with respect to KRAS): SPR KD ratio NRAS/KRAS, class symbols
[3] = SPR, GDP-bound HRAS wild-type protein vs GDP-bound KRAS wild-type protein
[4] = SPR, GDP-bound NRAS wild-type protein vs GDP-bound KRAS wild-type protein

Sequence of GDP-bound NRAS wild-type protein (P01111 whole entry): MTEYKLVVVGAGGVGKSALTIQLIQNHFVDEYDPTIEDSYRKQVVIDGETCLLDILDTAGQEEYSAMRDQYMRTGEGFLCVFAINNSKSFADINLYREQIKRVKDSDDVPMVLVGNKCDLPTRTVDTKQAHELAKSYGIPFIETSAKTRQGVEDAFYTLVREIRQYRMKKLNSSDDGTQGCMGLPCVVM
Sequence of GDP-bound HRAS wild-type protein (P01112 whole entry): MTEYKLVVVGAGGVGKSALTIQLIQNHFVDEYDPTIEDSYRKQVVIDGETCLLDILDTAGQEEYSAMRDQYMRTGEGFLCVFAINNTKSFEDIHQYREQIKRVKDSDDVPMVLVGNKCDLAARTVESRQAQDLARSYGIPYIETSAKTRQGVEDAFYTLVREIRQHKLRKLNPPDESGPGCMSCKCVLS

| SMILES | HRAS/KRAS (ratio of KD value for HRAS to KD value for KRAS) [1, 3] | NRAS/KRAS (ratio of KD value for NRAS to KD value for KRAS) [2, 4] | further results |
| --- | --- | --- | --- |
| CCC[C@H]1C(=O)N[C@@H]([C@@H](C)CC)C(=O)N(C)CC(=O)N(C)[C@H]2C/C=C\CCN(C2=O)[C@@H](Cc2ccc(C(F)(F)F)cc2)C(=O)N(C)CC(=O)N[C@@H](CCc2ccc(CC)c(OC)c2)C(=O)N2C[C@H](OCC)C[C@H]2C(=O)NC2(CC(C)(C)C2)C(=O)N(C)[C@@H](C2CCCC2)C(=O)N(C)[C@H](C(=O)N(C)C)CC(=O)N1C [PP2869] | – | – | HRAS/KRAS (ratio of KD value with respect to GDP-bound HRAS wild-type protein to KD value with respect to KRAS) [1]: A (a compound having 10 or more and less than 20 is denoted as A); NRAS/KRAS (ratio of KD value with respect to GDP-bound NRAS wild-type protein to KD value with respect to KRAS) [2]: A (a compound having 10 or more and less than 20 is denoted as A) |
| C#CC[C@H]1C(=O)N[C@@H]([C@@H](C)CC)C(=O)N(C)CC(=O)N(C)[C@H]2C/C=C\CCN(C2=O)[C@@H](Cc2ccc(C(F)(F)F)cc2)C(=O)N(C)CC(=O)N[C@@H](CCc2ccc(C(F)(F)F)c(OC)c2)C(=O)N2C[C@@H](C)C[C@H]2C(=O)NC2(CCC2)C(=O)N(C)[C@@H](C2CCCC2)C(=O)N(C)[C@H](C(=O)N(C)CCC)CC(=O)N1C [PP2063] | A (a compound having 10 or more and less than 20 is denoted as A) | AA (a compound having 20 or more is denoted as AA) | – |
| CCO[C@@H]1C[C@H]2C(=O)NC3(CC(C)(C)C3)C(=O)N(C)[C@@H](C(CC)CC)C(=O)N(C)[C@H](C(=O)N(C)C)CC(=O)N(C)[C@H]3CC/C=C/c4ccc(cc4)C[C@@H](C(=O)N(C)CC(=O)N[C@@H](CCc4ccc(Cl)c(Cl)c4)C(=O)N2C1)N1CC/C=C\C[C@@H](C1=O)N(C)C(=O)CN(C)C(=O)[C@H]([C@@H](C)CC)NC3=O [PP2589] | – | – | HRAS/KRAS (ratio of KD value with respect to GDP-bound HRAS wild-type protein to KD value with respect to KRAS) [1]: A (a compound having 10 or more and less than 20 is denoted as A); NRAS/KRAS (ratio of KD value with respect to GDP-bound NRAS wild-type protein to KD value with respect to KRAS) [2]: AA (a compound having 20 or more is denoted as AA) |
| CC[C@H](C)[C@@H]1NC(=O)[C@H](CC(C)C)N(C)C(=O)C[C@@H](C)N(C)C(=O)[C@H](C2CCCC2)N(C)C(=O)C2(CCC2)NC(=O)[C@@H]2CCCN2C(=O)[C@H](CCc2cc(F)c(C(F)(F)F)c(F)c2)NC(=O)CN(C)C(=O)[C@H](Cc2ccc(C(F)(F)F)cc2)N2CC/C=C\C[C@@H](C2=O)N(C)C(=O)CN(C)C1=O [PP1099] | A (a compound having 10 or more and less than 20 is denoted as A) | B (a compound having 3 or more and less than 10 is denoted as B) | – |
| CCO[C@@H]1C[C@H]2C(=O)NC3(CCC3)C(=O)N(C)[C@@H](C3CCCC3)C(=O)N(C)[C@H](C(=O)N3CCOCC3)CC(=O)N(C)[C@@H](CC(C)C)C(=O)N[C@@H]([C@H](C)CC)C(=O)N(C)CC(=O)N(C)[C@H]3CCCCCN(C3=O)[C@@H](Cc3ccc(C(F)(F)F)cc3)C(=O)N(C)CC(=O)N[C@@H](CCc3cc(F)c(C(F)(F)F)c(F)c3)C(=O)N2C1 [PP0815] | B (a compound having 3 or more and less than 10 is denoted as B) | B (a compound having 3 or more and less than 10 is denoted as B) | – |
| CC[C@H](C)[C@@H]1NC(=O)[C@@H](CC(C)C)N(C)C(=O)C[C@@H](C(=O)N2CCOCC2)N(C)C(=O)[C@H](C2CCCC2)N(C)C(=O)C2(CCCC2)NC(=O)[C@@H]2CCCN2C(=O)[C@H](CCc2cc(F)c(C(F)(F)F)c(F)c2)NC(=O)CN(C)C(=O)[C@H](Cc2ccc(C(F)(F)F)cc2)N2CCCC[C@@H](C2=O)N(C)C(=O)CN(C)C1=O [PP0591] | – | – | HRAS/KRAS (ratio of KD value with respect to HRAS to KD value with respect to KRAS) [1, 3]: B (a compound having 3 or more and less than 10 is denoted as B); NRAS/KRAS (ratio of KD value with respect to NRAS to KD value with respect to KRAS) [2, 4]: B (a compound having 3 or more and less than 10 is denoted as B) |
| CCO[C@@H]1C[C@H]2C(=O)NC3(CCC3)C(=O)N(C)[C@@H](C3CCCC3)C(=O)N(C)[C@H](C(=O)N(C)C)CC(=O)N(C)[C@@H](CC)C(=O)N[C@@H]([C@@H](C)CC)C(=O)N3CC[C@@H]3C(=O)N(C)[C@H]3C/C=C\CCN(C3=O)[C@@H](Cc3ccc(C(F)(F)F)cc3)C(=O)N(C)CC(=O)N[C@@H](CCc3cc(F)c(C(F)(F)F)c(F)c3)C(=O)N2C1 [PP1064] | A (a compound having 10 or more and less than 20 is denoted as A) | A (a compound having 10 or more and less than 20 is denoted as A) | – |
| CCCN1C(=O)[C@@H]2CCN2C(=O)[C@H](C)N(C)C(=O)[C@H]([C@@H](C)CC)NC(=O)[C@H](CC(C)C)N(C)C(=O)C[C@@H](C(=O)N2CCOCC2)N(C)C(=O)[C@H](C2CCCC2)N(C)C(=O)C2(CCCC2)NC(=O)[C@@H]2C[C@H](O)CN2C(=O)[C@H](CCc2ccc(C(F)(F)F)c(Cl)c2)NC(=O)CN(C)C(=O)[C@@H]1Cc1ccc(C(F)(F)F)cc1 (stereo in doubt) [PP0238] | C (A compound having a KD ratio of 0.1 or more and less than 3 is denoted as C) | C (A compound having a KD ratio of 0.1 or more and less than 3 is denoted as C) | – |
